Source: patent publication US20180264080A1, “TOPICAL APPLICATIONS OF Kv1.3 CHANNEL BLOCKING PEPTIDES TO TREAT SKIN INFLAMMATION” (KINETA ONE, LLC, priority 2015, published 2018)

Test: Tissue penetration of topically applied peptide by immunohistochemistry (anti-ShK mAb P3B3) in rat pinna
Type: in vivo
Conditions: 10 doses, rat pinna sections 48 hours post-challenge (DTH study)
Excerpt: This example describes the method of detection of toxin-based therapeutic peptides of the disclosure, such as ShK-186 (SEQ ID NO:217) or ShK-198 (SEQ ID NO:210) penetration after topical administration.
Materials: All Bond reagents such Bond HIER 1 (Citrate), Bond HIER 2 (EDTA), Bond Primary antibody diluent, Bond dewax solution, Bond Wash solution, Bond Polymer Refine (DAB) detection rack including peroxide block, polymer/hematoxylin, Bond Alcohol and the Leica Bond Automated Immunostainer were purchased from Leica-microsystems.
ShK specific antibody: Hybridoma fusions were performed using the isolated splenocytes from ShK-186 immunized mice and clones producing specific monoclonal antibodies against ShK-186 and ShK-198 were isolated. These cultures were subjected to a second cloning process using the limited dilution method and selected for stable expression of the specific mAb. Stable clones were expanded, tested for antibody specificity to ShK-186 (and ShK parent) by ELISA, and their isotypes were identified using the Roche Isostrips and confirmed by ELISA. For ELISA testing, culture supernatants were diluted from 1:4-1:256 and the titer was determined to be the last dilution 2 standard deviations above background. Clone P3B3-G11-C12 is purified from hybridoma extinction cultures and concentrated to 1 mg/ml. […]

Row | Substance | Tissue penetration of the peptide into rat pinna (dark staining with ShK specific monoclonal antibody P3B3) (5% solution of ShK-198, topical) | Tissue penetration of the peptide into rat pinna (dark staining with ShK specific monoclonal antibody P3B3) (1% solution of ShK-186, topical)
1 | (L-Tyr)-AEEAc-RSCIDTIPKSRCTAFQCKHSMKYRLSFCRKTCGTC-amide [ShK-198] | perfuse and extensive penetration | –
2 | (L-PhosphoTyr)-AEEAc-RSCIDTIPKSRCTAFQCKHSMKYRLSFCRKTCGTC-amide [ShK-186] | – | perfuse and extensive penetration
